Experimental data as given in ChEMBL document CHEMBL1149032, “Two new cytotoxic peroxide-containing acids from a New Guinea sponge, Callyspongia sp” (1994).
≈ marks a conversion by molar mass, not a printed value.

Test system: P388
Experiment: Cytotoxicity against mouse P388 cells
Assay type: functional
Details: read-out: ED50 (the source's name)

SMILES | EC50 [µg/mL]
C/C=C1/C[C@](CC)(CCCC)OO[C@H]1CC(=O)O | 5.5 (≈ 21.5 µM)
CCCCC1(CC)C[C@@H](CC)[C@H](CC(=O)O)OO1 (some centres not stated) | 2.6 (≈ 10.1 µM)
